Results published in PMC6906431, “Selective small molecule PARG inhibitor causes replication fork stalling and cancer cell death” (Nature Communications, 2019).

Assays:
[1] = tested on: A172 glioblastoma cells; test: Sulforhodamine B (SRB) cytotoxicity assay; conditions: 72 h
Description: Normalized % viabilities are plotted against log concentration. Error bars show the percent coefficient of variation. […] Mann-Whitney test was used to generate the p-value. The DNA spread assay is the representation of two independently repeated experiments. Source Data are provided as a Source Data file.
Cells were plated in 96-well plates, treated as designated in reduced 5% FBS and fixed with trichloroacetic acid after 72 h, as previously described by[43]. […] Colorimetric or fluorescence analysis was performed in a FlexStation 3, using SoftMax Pro 7.0, Molecular Devices. Normalized graphs were generated with Prism 8 software, non-linear 4-parameter data fitting was performed for IC50 calculation.

[2] = target: T1, rat PARG (Rattus norvegicus, UniProt Q9QYM2); test: TR-FRET PAR turnover assay (HTS and dose-response); format: biochemical; conditions: for IC50: dose-response, rat PARG 12.5 nM, read-out: Estimated IC50; for TR-FRET: 6.7 μM compound
T1 construct: The catalytic domain of rat PARG (residues 385–972) was purified as described previously; made in house
From the text: Importantly, PARG enzymatic function can be required for tumorigenesis. Therefore, we sought to identify a selective PARG inhibitor through our robust PARG enzyme kinetic assay, which quantitatively monitors real-time PAR-mediated PARP1-XRCC1 interactions and disassembly in a multi-well format. A strong TR-FRET signal was generated upon assembly of the Tb^3+-chelated XRCC1 (FRET donor) with PARylated PARP1, which incorporates fluorescein-labeled ADP-ribose moieties into PAR chains (FRET acceptor). The addition of PARG caused a time-dependent loss of the TR-FRET signal by reversing PARylation and disassembling the PARP1-XRCC1 complex (Supplementary Fig. 1)[37].
For a high-throughput screening (HTS) of PARG inhibitors, we developed a high-throughput PARG activity assay using the TR-FRET system (a manuscript describing the details of this assay will be published elsewhere). Briefly, the fluorescein molecule (FITC) was enzymatically incorporated into PARP1 in a reaction containing PARP1C (2 μM), the PARP1 DBD (2 μM), a 24 mer nicked DNA oligo (2 μM), and a mixture of unlabeled NAD^+ (Sigma) and FITC-NAD^+ (Trevigen) substrates (total NAD^+ concentration of 100 μM). After incubation for 1 h at 37 °C, PARylated PARP1 was desalted using a PD-10 desalting column (GE healthcare) in a buffer containing 25 mM Tris-HCl (pH 7.5), 50 mM NaCl, and 0.01% NP-40 and used as the FRET acceptor. The biotin-tagged BRCT1 domain of XRCC1 (BRCT1, 5 nM) was conjugated with an equimolar concentration of Tb^3+-chelated streptavidin (Life Technologies) in TR-FRET assay buffer (FRET donor). […] The reaction was started by the addition of the FRET pair of FITC-labeled PARP1 (42 nM) and Tb^3+-BRCT1 (5 nM). The TR-FRET signal was subsequently monitored for 60 min.
Small molecule inhibitors of PARG were identified by high-throughput screening (HTS) using the TR-FRET PAR turnover assay. Compounds (final concentration of 6.7 μM) from the NCI Diversity Set II library (1990 compounds) were pre dispensed into black polystyrene 384-well plates (Corning) using a Hummingbird liquid handler (Digilab). Then, 10 μl of rat PARG^385–972 (12.5 nM and 25 nM) were subsequently dispensed into plates, using a multi-drop combi nL reagent dispenser (Thermo Scientific) and incubated with compounds for 1 h at 4 °C. The reaction was initiated by the addition of 20 μl of the premixed FRET pair of FITC-labeled PARP1 (42 nM) and Tb^3+-BRCT1 (5 nM), and the TR-FRET signal was monitored every 4 min for 40 min (11 data points). Hits were selected by visually comparing the rate of the TR-FRET signal decrease in each well to that of negative control reactions containing DMSO (Fig. 1b and see Text for details). The HTS was performed at the High-Throughput Screening Core (HTSC) at Washington University School of Medicine.

[3] = target: T2, Human PARG (Homo sapiens, UniProt Q86W56); test: Gel-based PARG activity assay; format: biochemical; conditions: for IC50: hPARG 1 nM, PARylated PARP1C 500 nM, 30 min; for inhibition at 0.0488281 µM: [L] 0.0488281 uM; for inhibition at 0.0976562 µM: [L] 0.0976562 uM; for inhibition at 0.195312 µM: [L] 0.195312 uM; for inhibition at 0.390625 µM: [L] 0.390625 uM; for inhibition at 0.78125 µM: [L] 0.78125 uM; for inhibition at 1.5625 µM: [L] 1.5625 uM; for inhibition at 3.125 µM: [L] 3.125 uM; for inhibition at 6.25 µM: [L] 6.25 uM; for inhibition at 12.5 µM: [L] 12.5 uM; for inhibition at 25 µM: [L] 25 uM; for inhibition at 50 µM: [L] 50 uM
T2 construct: The human PARG (hPARG) catalytic domain (residues 389–976) was cloned in pET28a (Novagen); His-tag (N); made in house; host or cells: E. coli Rosetta
Description: PARP1C (2 μM) is enzymatically auto-modified in a reaction containing the PARP1 DBD (2 μM), a 24 mer nicked DNA oligo (2 μM), and NAD^+ (300 μM) for 1 h at 37 °C, as described previously. Human PARG^389–976 (1 nM) was pre-incubated with compounds for 1 h at room temperature. The reaction was initiated by the addition of PARylated PARP1 (final concentration of 500 nM) and quenched after 30 min incubation at room temperature by adding SDS-PAGE sample buffer. The gel was visualized by sypro-ruby staining[18] and the retained PARylated PARP1C species were quantified using ImageJ[59]. PARylated PARP1C that migrates slower than unmodified PARP1C was quantified. […] The IC50 values were determined by fitting the dose-response data for each compound to a four-parameter logistic equation using SigmaPlot (Systat Software Inc.).
To test the specificity of JA2131, human PARG^389–976 (1 nM) was pre-incubated with JA2131 (5, 10, and 20 μM) in the presence and absence of 0.1% Triton-X 100 or 0.1 mg/ml BSA for 1 h at room temperature. The reaction was initiated, quenched, visualized, and quantified as described above. […]
PARG activity assay. […]
PARP1 (500 nM). The reaction was quenched after a 30 -minu te in cu ba tion a t roo m te mpe ra tu re by adding SDS-PA GE sa mp le bu f fe r. PARylated PARP1C runs as a smear on SDS -PAGE that is reduced to a single band by PARG treatment. […]
2). (b) Qu an t if ica t ion o f the dose-response PARG inhibition by JA2 -3 using the gel-based PARG activity assay. hPARG (1 nM) was preincubated with increasing concentrations (0.032 – 1 µM) of JA2-3 f o r 1 hour at room temperature before PARylated PARP1C (500 nM) was added. The reaction was quenched after a 30-minu te incubation at room temperature. PARylated PARP1C migrates slower than unmodified PARP1C and was quantified using ImageJ. […] The rate of the PARG-dependent signal loss in the TR-FRET PAR turnover assay is not equivalent to the steady-state rate of PAR turnover, because the TR-FRET assay can’t detect signal loss until the length of PAR chains become shorter than 7 ADP-ribose units. Therefore, we used the gel-based PARG activity assay to accurately determine the IC50 values throughout the manuscript .

T2 sequence (Q86W56 389-976): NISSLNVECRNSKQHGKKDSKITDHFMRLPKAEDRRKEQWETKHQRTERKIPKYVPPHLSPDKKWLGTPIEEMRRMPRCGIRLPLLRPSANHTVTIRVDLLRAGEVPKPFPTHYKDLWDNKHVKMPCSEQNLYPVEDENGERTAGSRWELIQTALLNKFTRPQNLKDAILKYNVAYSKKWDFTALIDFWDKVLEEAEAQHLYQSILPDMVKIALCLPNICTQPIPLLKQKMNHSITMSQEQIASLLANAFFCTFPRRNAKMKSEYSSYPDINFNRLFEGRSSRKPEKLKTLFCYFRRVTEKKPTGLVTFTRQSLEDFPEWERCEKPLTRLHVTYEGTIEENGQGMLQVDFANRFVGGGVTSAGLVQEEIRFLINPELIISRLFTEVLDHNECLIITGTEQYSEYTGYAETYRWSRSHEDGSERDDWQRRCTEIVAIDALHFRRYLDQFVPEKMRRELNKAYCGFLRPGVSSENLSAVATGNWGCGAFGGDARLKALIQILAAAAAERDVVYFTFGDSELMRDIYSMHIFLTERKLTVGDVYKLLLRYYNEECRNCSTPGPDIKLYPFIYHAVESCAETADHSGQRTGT
T1 sequence (Q9QYM2 385-972): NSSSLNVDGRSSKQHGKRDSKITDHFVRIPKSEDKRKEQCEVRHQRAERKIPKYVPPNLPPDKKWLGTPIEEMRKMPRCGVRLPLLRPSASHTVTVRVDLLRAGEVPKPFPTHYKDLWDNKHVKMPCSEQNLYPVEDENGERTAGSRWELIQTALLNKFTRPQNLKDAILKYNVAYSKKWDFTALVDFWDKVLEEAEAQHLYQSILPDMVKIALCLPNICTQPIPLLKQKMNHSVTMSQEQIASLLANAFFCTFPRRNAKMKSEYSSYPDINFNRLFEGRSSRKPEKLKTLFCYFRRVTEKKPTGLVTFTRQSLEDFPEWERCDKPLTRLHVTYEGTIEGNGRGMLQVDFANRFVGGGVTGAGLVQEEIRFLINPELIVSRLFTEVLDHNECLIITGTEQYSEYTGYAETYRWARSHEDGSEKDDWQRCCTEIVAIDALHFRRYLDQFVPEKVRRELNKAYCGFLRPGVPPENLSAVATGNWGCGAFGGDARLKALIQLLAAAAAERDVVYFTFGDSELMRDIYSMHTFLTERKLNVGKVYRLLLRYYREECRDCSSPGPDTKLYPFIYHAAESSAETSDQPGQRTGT

With `NC(=O)NO` [Hydroxyurea] the IC50 [1] was 381000 ± 117000 nM.

Work on `CCCOCN1C(=O)C=CC1=O` [JA1-1] yielded an IC50 [2] of 1000 to 2000 nM.

With `O=C1C=CC(=Nc2cccc3c(N=C4C=CC(=O)O4)cccc23)O1` [JA1-3] the IC50 [2] was ~400 nM.

`O=c1[nH]c2[nH]c(=S)[nH]c(=S)c2[nH]1` [JA2-3] was tested, and the TR-FRET ([2]; 12.5 nM PARG, 0 min) was 1.1077, the TR-FRET ([2]; 12.5 nM PARG, 4 min) was 1.1706 and the TR-FRET ([2]; 12.5 nM PARG, 8 min) was 1.1753. For the same compound, the TR-FRET ([2]; 12.5 nM PARG, 12 min) was 1.0984, the TR-FRET ([2]; 12.5 nM PARG, 16 min) was 1.1414 and the TR-FRET ([2]; 12.5 nM PARG, 20 min) was 1.0328. The TR-FRET ([2]; 12.5 nM PARG, 24 min) was 0.9368, the TR-FRET ([2]; 12.5 nM PARG, 28 min) was 0.9375 and the TR-FRET ([2]; 12.5 nM PARG, 32 min) was 0.9636. For the same compound, the TR-FRET ([2]; 12.5 nM PARG, 36 min) was 0.9240, the TR-FRET ([2]; 12.5 nM PARG, 40 min) was 0.9660 and the TR-FRET ([2]; 25 nM PARG, 0 min) was 1.1716. For the same compound, the TR-FRET ([2]; 25 nM PARG, 4 min) was 1.2418, the TR-FRET ([2]; 25 nM PARG, 8 min) was 1.1876 and the TR-FRET ([2]; 25 nM PARG, 12 min) was 1.1061. It also gave a TR-FRET ([2]; 25 nM PARG, 16 min) of 1.0537, a TR-FRET ([2]; 25 nM PARG, 20 min) of 1.0170 and a TR-FRET ([2]; 25 nM PARG, 24 min) of 0.9403. The TR-FRET ([2]; 25 nM PARG, 28 min) was 0.9903, the TR-FRET ([2]; 25 nM PARG, 32 min) was 1.0366 and the TR-FRET ([2]; 25 nM PARG, 36 min) was 0.9358. It also gave a TR-FRET ([2]; 25 nM PARG, 40 min) of 1.0455, an inhibition at 0.0001 µM ([3]; 0.5 h, [L] 1.00E-04 uM) of 0% and an inhibition at 0.03125 µM ([3]; [L] 0.03125 uM) of 17%. It also gave an inhibition at 0.0625 µM ([3]; [L] 0.0625 uM) of 35.9%, an inhibition at 0.125 µM ([3]; [L] 0.125 uM) of 56.7% and an inhibition at 0.25 µM ([3]; [L] 0.25 uM) of 74.4%. It also gave an inhibition at 0.5 µM ([3]; [L] 0.5 uM) of 88%, an inhibition at 1 µM ([3]; [L] 1 uM) of 103% and an IC50 [3] of 100 nM.

Work on `Cn1c(=S)c2nc(SCCN3CCCC3)[nH]c2n(C)c1=O` [JA2-4] yielded an inhibition at 0.0488281 µM [3] of 2.01%, an inhibition at 0.0976562 µM [3] of 4.3% and an inhibition at 0.195312 µM [3] of 25.2%. It also gave an inhibition at 0.390625 µM [3] of 34.9%, an inhibition at 0.78125 µM [3] of 48.4% and an inhibition at 1.5625 µM [3] of 67%. The inhibition at 3.125 µM [3] was 70.1%, the inhibition at 6.25 µM [3] was 78.4% and the inhibition at 12.5 µM [3] was 87.5%. The inhibition at 25 µM [3] was 93.6%, the inhibition at 50 µM [3] was 100% and the IC50 [3] was 900 nM.

Work on `Cn1c(=O)c2[nH]c(SCCN3CCOCC3)nc2n(C)c1=S` [JA2-5] yielded an inhibition at 0.0488281 µM [3] of 6.3%, an inhibition at 0.0976562 µM [3] of 19.6% and an inhibition at 0.195312 µM [3] of 28.3%. It also gave an inhibition at 0.390625 µM [3] of 27.3%, an inhibition at 0.78125 µM [3] of 35.2% and an inhibition at 1.5625 µM [3] of 71%. It also gave an inhibition at 3.125 µM [3] of 81.9%, an inhibition at 6.25 µM [3] of 87.9% and an inhibition at 12.5 µM [3] of 89.1%. For the same compound, the inhibition at 25 µM [3] was 99.8%, the inhibition at 50 µM [3] was 104% and the IC50 [3] was 1000 nM.

With `Cn1c(=O)c2[nH]c(SCCN3CCOCC3)nc2n(C)c1=O` [JA2120] the “potency difference JA2131 (6´-thiocarbonyl) vs JA2120 (6´-carbonyl)” value [3] was “more than 50 fold”, the inhibition at 0.0488281 µM [3] was 6.05% and the inhibition at 0.0976562 µM [3] was 5.87%. The inhibition at 0.195312 µM [3] was 7.21%, the inhibition at 0.390625 µM [3] was 10.4% and the inhibition at 0.78125 µM [3] was 16.2%. It also gave an inhibition at 1.5625 µM [3] of 24.6%, an inhibition at 3.125 µM [3] of 25.7% and an inhibition at 6.25 µM [3] of 24.7%. It also gave an inhibition at 12.5 µM [3] of 33.9%, an inhibition at 25 µM [3] of 45.5% and an inhibition at 50 µM [3] of 67%. For the same compound, the inhibition at 100 µM ([3]; [L] 100 uM) was 88.3% and the IC50 [3] was 25700 nM.
